{"source": "patent US20260015364A1", "about": "“PIPERAZINE BRIDGE-SUBSTITUTED HETEROCYCLIC PYRIMIDINE COMPOUND” (MEDSHINE DISCOVERY INC., priority 2022, published 2026)", "key": {"[1]": {"tested_on": "PANC04.03 human pancreatic cancer cells with KRAS^G12D mutation", "test": "PANC04.03 3D CTG experiment (anti-proliferation)", "format": "cell-based", "conditions": "Panc 04.03, 168 h, 7 days incubation", "source_text": "This experiment aims to verify the inhibitory effect of the compounds of the present disclosure on the proliferation of PANC04.03 human pancreatic cancer cells with KRAS^G12D mutation.\n(§1) Cell line PANC04.03 and RPMI-1640 medium were purchased from GIBCO, FBS was purchased from Hyclone, and human insulin was purchased from Yeasen. The 96-well plate was purchased from Ultra Low Cluster, CellTiter-Glo® 3D Cell Viability Assay reagents (chemiluminescent 3D cell viability assay reagents) were purchased from Promega, and 2104 En Vision plate reader was purchased from PerkinElmer.\n(§2) PANC04.03 cells were cultured in an incubator at 37° C. with 5% CO2 under the conditions of RPMI-1640+15% FBS+5 µg/mL human insulin. Regular passaging was performed, and cells in the logarithmic growth phase were selected for plating. PANC04.03 cells were seeded in a 96-well U-bottom cell culture plate, and each well of 135 μL cell suspension contained 2000 PANC04.03 cells. The culture plate was cultured overnight in a 37° C., 5% CO2 incubator with 100% relative humidity. The test compound was diluted 5-fold to the eighth concentration using a pipette, ranging from 200 μM to 2.56 nM, and tested in duplicate. 78 μL of culture medium per well was added to an intermediate plate. […] A multimode microplate reader was used for reading. […]"}, "[2]": {"tested_on": "AsPC-1 human pancreatic cancer cells with KRAS^G12D mutation", "test": "AsPC-1 3D CTG experiment (anti-proliferation)", "format": "cell-based", "conditions": "ASPC1, 168 h, 7 days incubation", "source_text": "This experiment aims to verify the inhibitory effect of the compounds of the present disclosure on the proliferation of AsPC-1 human pancreatic cancer cells with KRAS^G12D mutation.\nas §1, with “AsPC-1” for “PANC04.03”, “GIBCO, and” for “GIBCO,”, “Hyclone.” for “Hyclone, and human insulin was purchased from Yeasen.”, “EnVision” for “En Vision”\nas §2, with “AsPC-1” for “PANC04.03”, “CO2” for “CO2 under”, “RPMI-1640+10% FBS.” for “RPMI-1640+15% FBS+5 µg/mL human insulin.”, “500 AsPC-1” for “2000 PANC04.03”, “plate. Subsequently, 2 μL of the gradient diluted compound per well was transferred to the corresponding wells of the intermediate plate and mixed well.” for “plate.”"}, "[3]": {"test": "In vivo pharmacokinetic experiment in CD-1 mice", "description": "This experiment aims to investigate the pharmacokinetic properties of the compounds of the present disclosure administrated by oral and intravenous injection in CD-1 mice.\nThe test compound was mixed with 10% dimethyl sulfoxide+90% (10% hydroxypropyl-β-cyclodextrin (HP-β-CD) aqueous solution), vortexed, and sonicated to prepare 0.6, 3.0, and 10.0 mg/mL clear solutions, respectively. Male CD-1 mice aged 7 to 10 weeks were selected and intravenously injected (i.v.) with a solution of the candidate compound at a dose of 3 mg/kg (administration concentration of 0.6 mg/mL). The solution of the candidate compound was administered orally (p.o.) at a dose of 30 mg/kg (administration concentration of 3.0 mg/mL) or 100 mg/kg (administration concentration of 10.0 mg/mL). Whole blood was collected for a certain period of time and prepared into plasma. The drug concentration was analyzed by the LC-MS/MS method, and the pharmacokinetic parameters were calculated using Phoenix WinNonlin software (Pharsight, USA)."}, "[4]": {"conditions": "male, mouse, iv, 3 mg/kg, i.v. 3 mpk, plasma"}, "[5]": {"conditions": "male, mouse, po, 30 mg/kg, p.o. 30 mpk, plasma"}, "[6]": {"conditions": "male, mouse, po, 100 mg/kg, p.o. 100 mpk, plasma"}}}
{"molecule": "C#Cc1c(F)ccc2cc(N)cc(-c3ncc4c(N5CC6CCC(C5)N6)nc(OC[C@@]56CC(=C)CN5C[C@@H]5C[C@@H]56)nc4c3F)c12", "note": "(single isomer, unassigned) [Compound 3]", "values": [{"measurement": "IC50", "setting": "[1]", "result": 34.2, "unit": "nM"}, {"measurement": "IC50", "setting": "[2]", "result": 5.74, "unit": "nM"}, {"measurement": "AUC(0-inf)", "setting": "[3]; [4]", "result": 1.66, "unit": "µM·h"}, {"measurement": "AUC(0-t)", "setting": "[3]; [4]", "result": 1.56, "unit": "µM·h"}, {"measurement": "Vd", "setting": "[3]; [4]", "result": 41.1, "unit": "L/kg"}, {"measurement": "clearance", "setting": "[3]; [4]", "result": 50.8, "unit": "mL/min/kg"}, {"measurement": "half-life", "setting": "[3]; [4]", "result": 9.3, "unit": "h"}, {"measurement": "AUC(0-inf)", "setting": "[3]; [5]", "result": 1.18, "unit": "µM·h"}, {"measurement": "AUC(0-t)", "setting": "[3]; [5]", "result": 1.15, "unit": "µM·h"}, {"measurement": "Cmax", "setting": "[3]; [5]", "result": 439, "unit": "nM"}, {"measurement": "Tmax", "setting": "[3]; [5]", "result": 0.583, "unit": "h"}, {"measurement": "half-life", "setting": "[3]; [5]", "result": 5.41, "unit": "h"}, {"measurement": "AUC(0-inf)", "setting": "[3]; [6]", "result": 13.3, "unit": "µM·h"}, {"measurement": "AUC(0-t)", "setting": "[3]; [6]", "result": 13.1, "unit": "µM·h"}, {"measurement": "Cmax", "setting": "[3]; [6]", "result": 3110, "unit": "nM"}, {"measurement": "Tmax", "setting": "[3]; [6]", "result": 1.25, "unit": "h"}, {"measurement": "half-life", "setting": "[3]; [6]", "result": 4.24, "unit": "h"}, {"measurement": "F", "setting": "[3]; p.o. 100 mpk", "result": 24.0, "unit": "%"}]}
